Data reported in US12493040B2, “Cancer detection method using sense of smell of nematode” (HIROTSU BIO SCIENCE INC., priority 2013, dated 2025).

Tested on: RNAi-treated eri-1 (mg366) nematodes
Assay: RNAi screening of olfactory receptor genes: chemotaxis assay of RNAi-treated nematodes to odorants
Format: in vivo, Caenorhabditis elegans
Description: The RNAi assay was carried out by performing an RNAi method involving the feeding (feeding RNAi method) of eri-1 (mg366) (19), using an Ahringer library (37).
Nine adult eri-1 mutants were placed on an NGM plate containing isopropyl 1-D-1-thiogalactopyranoside (0.19 g/L), ampicillin (60 mg/L), and Escherichia coli (E. coli), and were then cultured for 4 days. Subsequently, the adult worms were used in a chemotaxis assay. The chemotaxis assay was carried out as previously reported (6, 17). In the chemotaxis assay, the present inventor has used 30 to 50 worms in each experiment in which 1 μl of 10^−3- or 10^−4-diluted odorant (low concentration), or 1 and 5 μl of undiluted odorants (high concentration) were used.
The z score and a control value in each single test from 2SD were calculated in all days (Table 3) or every day. The z score was used as a threshold indicating a great difference (−1.96 and 1.96, P<0.05). […] Accordingly, the present inventor has used the z score±1 (−0.96 and 0.96, P<0.33) as a weaker threshold.

## CC(C)CCO [isoamyl alcohol]
srh-10 RNAi-treated nematodes, low concentration of attractant
  chemotaxis index: −0.12
srh-11 RNAi-treated nematodes, low concentration of attractant
  chemotaxis index: 0.05
srh-15 RNAi-treated nematodes, low concentration of attractant
  chemotaxis index: 0.59
srh-16 RNAi-treated nematodes, low concentration of attractant
  chemotaxis index: 0.86
srh-18 RNAi-treated nematodes, low concentration of attractant
  chemotaxis index: 0.67
srh-19 RNAi-treated nematodes, low concentration of attractant
  chemotaxis index: 0.67
srh-22 RNAi-treated nematodes, low concentration of attractant
  chemotaxis index: 0.58
srh-23 RNAi-treated nematodes, low concentration of attractant
  chemotaxis index: 0.54
srh-24 RNAi-treated nematodes, low concentration of attractant
  chemotaxis index: 0.58
srh-214 RNAi-treated nematodes, low concentration of attractant
  chemotaxis index: 0.63
srh-216 RNAi-treated nematodes, low concentration of attractant
  chemotaxis index: 0.76
srh-217 RNAi-treated nematodes, low concentration of attractant
  chemotaxis index: −0.12
srh-220 RNAi-treated nematodes, low concentration of attractant
  chemotaxis index: 0.81
srh-222 RNAi-treated nematodes, low concentration of attractant
  chemotaxis index: 0.80
srh-223 RNAi-treated nematodes, low concentration of attractant
  chemotaxis index: 0.51
srh-227 RNAi-treated nematodes, low concentration of attractant
  chemotaxis index: 0.43
srh-229 RNAi-treated nematodes, low concentration of attractant
  chemotaxis index: −0.20
srh-233 RNAi-treated nematodes, low concentration of attractant
  chemotaxis index: 0.36
srh-235 RNAi-treated nematodes, low concentration of attractant
  chemotaxis index: 0.64
srh-236 RNAi-treated nematodes, low concentration of attractant
  chemotaxis index: 0.41
srh-239 RNAi-treated nematodes, low concentration of attractant
  chemotaxis index: 0.57
srh-241 RNAi-treated nematodes, low concentration of attractant
  chemotaxis index: 0.63
srh-243 RNAi-treated nematodes, low concentration of attractant
  chemotaxis index: 0.46
srh-244 RNAi-treated nematodes, low concentration of attractant
  chemotaxis index: 0.74
srh-247 RNAi-treated nematodes, low concentration of attractant
  chemotaxis index: 0.60
srh-250 RNAi-treated nematodes, low concentration of attractant
  chemotaxis index: 0.47
srh-251 RNAi-treated nematodes, low concentration of attractant
  chemotaxis index: 0.75
srh-252 RNAi-treated nematodes, low concentration of attractant
  chemotaxis index: 0.59
srh-258 RNAi-treated nematodes, low concentration of attractant
  chemotaxis index: 0.78
srh-261 RNAi-treated nematodes, low concentration of attractant
  chemotaxis index: 0.51
srh-264 RNAi-treated nematodes, low concentration of attractant
  chemotaxis index: 0.61
srh-266 RNAi-treated nematodes, low concentration of attractant
  chemotaxis index: 0.25
srh-274 RNAi-treated nematodes, low concentration of attractant
  chemotaxis index: 0.44
srh-275 RNAi-treated nematodes, low concentration of attractant
  chemotaxis index: 0.39
srh-276 RNAi-treated nematodes, low concentration of attractant
  chemotaxis index: 0.58
srh-277 RNAi-treated nematodes, low concentration of attractant
  chemotaxis index: 0.54
srh-279 RNAi-treated nematodes, low concentration of attractant
  chemotaxis index: 0.53
srh-281 RNAi-treated nematodes, low concentration of attractant
  chemotaxis index: 0.51
srh-282 RNAi-treated nematodes, low concentration of attractant
  chemotaxis index: 0.52
srh-283 RNAi-treated nematodes, low concentration of attractant
  chemotaxis index: 0.34
srh-284 RNAi-treated nematodes, low concentration of attractant
  chemotaxis index: 0.73
srh-291 RNAi-treated nematodes, low concentration of attractant
  chemotaxis index: 0.80
srh-292 RNAi-treated nematodes, low concentration of attractant
  chemotaxis index: 0.43
srh-293 RNAi-treated nematodes, low concentration of attractant
  chemotaxis index: 0.71
srh-297 RNAi-treated nematodes, low concentration of attractant
  chemotaxis index: 0.42
srh-298 RNAi-treated nematodes, low concentration of attractant
  chemotaxis index: 0.68
srh-308 RNAi-treated nematodes, low concentration of attractant
  chemotaxis index: 0.56

## O=Cc1ccccc1 [High Bz]
Control nematodes, repellent or high concentration of attractant
  chemotaxis index: −0.91 ± 0.007
srh-4 RNAi-treated nematodes, repellent or high concentration of attractant
  chemotaxis index: −0.75
srh-7 RNAi-treated nematodes, repellent or high concentration of attractant
  chemotaxis index: −1.00
srh-8 RNAi-treated nematodes, repellent or high concentration of attractant
  chemotaxis index: −0.93
srh-10 RNAi-treated nematodes, repellent or high concentration of attractant
  chemotaxis index: −0.95
srh-11 RNAi-treated nematodes, repellent or high concentration of attractant
  chemotaxis index: −0.78
srh-15 RNAi-treated nematodes, repellent or high concentration of attractant
  chemotaxis index: −0.41
srh-16 RNAi-treated nematodes, repellent or high concentration of attractant
  chemotaxis index: −0.88
srh-18 RNAi-treated nematodes, repellent or high concentration of attractant
  chemotaxis index: −0.88
srh-19 RNAi-treated nematodes, repellent or high concentration of attractant
  chemotaxis index: −1.00
srh-22 RNAi-treated nematodes, repellent or high concentration of attractant
  chemotaxis index: −0.80
srh-23 RNAi-treated nematodes, repellent or high concentration of attractant
  chemotaxis index: −0.88
srh-24 RNAi-treated nematodes, repellent or high concentration of attractant
  chemotaxis index: −1.00
srh-25 RNAi-treated nematodes, repellent or high concentration of attractant
  chemotaxis index: −0.73
srh-27 RNAi-treated nematodes, repellent or high concentration of attractant
  chemotaxis index: 0.96
srh-28 RNAi-treated nematodes, repellent or high concentration of attractant
  chemotaxis index: −0.75
srh-36 RNAi-treated nematodes, repellent or high concentration of attractant
  chemotaxis index: −0.95
srh-37 RNAi-treated nematodes, repellent or high concentration of attractant
  chemotaxis index: −1.00
srh-39 RNAi-treated nematodes, repellent or high concentration of attractant
  chemotaxis index: −0.84
srh-40 RNAi-treated nematodes, repellent or high concentration of attractant
  chemotaxis index: −0.87
srh-41 RNAi-treated nematodes, repellent or high concentration of attractant
  chemotaxis index: −0.89
srh-44 RNAi-treated nematodes, repellent or high concentration of attractant
  chemotaxis index: −0.48
srh-45 RNAi-treated nematodes, repellent or high concentration of attractant
  chemotaxis index: −0.96
srh-46 RNAi-treated nematodes, repellent or high concentration of attractant
  chemotaxis index: −0.82
srh-48 RNAi-treated nematodes, repellent or high concentration of attractant
  chemotaxis index: −0.80
srh-49 RNAi-treated nematodes, repellent or high concentration of attractant
  chemotaxis index: −0.76
srh-50 RNAi-treated nematodes, repellent or high concentration of attractant
  chemotaxis index: −1.00
srh-51 RNAi-treated nematodes, repellent or high concentration of attractant
  chemotaxis index: −0.96
srh-52 RNAi-treated nematodes, repellent or high concentration of attractant
  chemotaxis index: −1.00
srh-55 RNAi-treated nematodes, repellent or high concentration of attractant
  chemotaxis index: −0.98
srh-59 RNAi-treated nematodes, repellent or high concentration of attractant
  chemotaxis index: −0.91
srh-60 RNAi-treated nematodes, repellent or high concentration of attractant
  chemotaxis index: −0.98
srh-61 RNAi-treated nematodes, repellent or high concentration of attractant
  chemotaxis index: −0.92
srh-67 RNAi-treated nematodes, repellent or high concentration of attractant
  chemotaxis index: −0.97
srh-68 RNAi-treated nematodes, repellent or high concentration of attractant
  chemotaxis index: −0.87
srh-69 RNAi-treated nematodes, repellent or high concentration of attractant
  chemotaxis index: −0.87
srh-70 RNAi-treated nematodes, repellent or high concentration of attractant
  chemotaxis index: −0.94
srh-71 RNAi-treated nematodes, repellent or high concentration of attractant
  chemotaxis index: −0.91
srh-72 RNAi-treated nematodes, repellent or high concentration of attractant
  chemotaxis index: −0.98
srh-74 RNAi-treated nematodes, repellent or high concentration of attractant
  chemotaxis index: −0.95
srh-75 RNAi-treated nematodes, repellent or high concentration of attractant
  chemotaxis index: −0.94
srh-77 RNAi-treated nematodes, repellent or high concentration of attractant
  chemotaxis index: −0.89
srh-79 RNAi-treated nematodes, repellent or high concentration of attractant
  chemotaxis index: −0.80
srh-80 RNAi-treated nematodes, repellent or high concentration of attractant
  chemotaxis index: −0.87
srh-82 RNAi-treated nematodes, repellent or high concentration of attractant
  chemotaxis index: −0.88
srh-83 RNAi-treated nematodes, repellent or high concentration of attractant
  chemotaxis index: −0.45
srh-97 RNAi-treated nematodes, repellent or high concentration of attractant
  chemotaxis index: −0.86
srh-99 RNAi-treated nematodes, repellent or high concentration of attractant
  chemotaxis index: −0.74
srh-100 RNAi-treated nematodes, repellent or high concentration of attractant
  chemotaxis index: −0.94
srh-104 RNAi-treated nematodes, repellent or high concentration of attractant
  chemotaxis index: −0.91
srh-105 RNAi-treated nematodes, repellent or high concentration of attractant
  chemotaxis index: −0.96
srh-109 RNAi-treated nematodes, repellent or high concentration of attractant
  chemotaxis index: −0.87
srh-111 RNAi-treated nematodes, repellent or high concentration of attractant
  chemotaxis index: −0.79
